The record followed here is ChEMBL document CHEMBL1201862, “PubChem BioAssay data set” (2004).

Among the test systems are T47D; NCI/ADR-RES; A498; M14; OVCAR-8; K562; SF-539; SK-OV-3; NCI-H522; MDA-MB-435; Hs-578T; RPMI-8226; PC-3; OVCAR-4; SF-295; SN12C; ACHN; EKVX; MCF7.
Common to all, as to assay: NCI tumour cell line growth inhibition, 48 h

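Interpolation was linear, between the two tested concentrations surrounding the appropriate level; five concentrations were tested over 48 hours in 96-well plates. Abbreviation: GI50, concentration required for 50% inhibition of growth.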 Calls of active or inactive are those of the source. No stated cut-off is given here; in the data, active = GI50 up to about 1.1 µM and inactive = higher.

Consider `CO[C@H]1C[C@H](O[C@H]2CC[C@]3(C=O)[C@H]4CC[C@]5(C)[C@@H](C6=CC(=O)OC6)CC[C@]5(O)[C@@H]4CC[C@]3(O)C2)O[C@H](C)[C@H]1O[C@@H]1O[C@H](CO)[C@@H](O)[C@H](O)[C@H]1O`, for which the GI50 in the assay with T47D is 5.53e-05 µM (active); in the assay on NCI/ADR-RES it was 1.15e-05 µM (active); with A498, 5.81e-05 µM (active); with M14 it was 4.73e-05 µM (active); in the assay on OVCAR-8 it was 3.34e-05 µM (active); in the assay on K562, > 0.01 µM (active). For the same molecule, the GI50 with SF-539 is 2.03e-05 µM (active); in the assay with SK-OV-3, 4.23e-05 µM (active); with NCI-H522 it was 6.87e-06 µM (active); with MDA-MB-435, 4.61e-05 µM (active); with Hs-578T it was > 0.01 µM (active); in the assay with RPMI-8226, 3.7e-05 µM (active). The GI50 with PC-3 was 2.06e-05 µM (active); in the assay on OVCAR-4, 8.63e-06 µM (active); with SF-295, 2.04e-05 µM (active); in the assay on SN12C it was 1.05e-05 µM (active); in the assay on ACHN, 9.16e-06 µM (active); in the assay with EKVX, 7e-06 µM (active).
As for `O=c1cc(N2CCOCC2)[nH]c(=O)n1-c1cccc(C(F)(F)F)c1`, the GI50 in the assay on T47D, with NCI/ADR-RES, in the assay on A498, in the assay with M14, in the assay on OVCAR-8 and in the assay on K562 was > 100 µM (inactive) each time. Further, the GI50 in the assay with MCF7, in the assay with SF-539, in the assay on SK-OV-3, in the assay with NCI-H522, in the assay on MDA-MB-435 and in the assay with Hs-578T was > 100 µM (inactive) in each case. For the same molecule, the GI50 in the assay with OVCAR-4, in the assay with SF-295, in the assay with SN12C, in the assay on ACHN and with EKVX was > 100 µM (inactive) each time.
In the case of `Cn1c(N)nc(-c2ccc(Cl)cc2)c1SSc1c(-c2ccc(Cl)cc2)nc(N)n1C`, the GI50 is 2.28 µM (inactive) in the assay with T47D; 2.1 µM (inactive) in the assay on NCI/ADR-RES; 14.3 µM (inactive) in the assay with A498; 2.12 µM (inactive) in the assay with M14; 2.86 µM (inactive) in the assay with OVCAR-8; 2.36 µM (inactive) in the assay with K562. For the same molecule, the GI50 with SF-539 was 1.71 µM (inactive); with SK-OV-3, 14.4 µM (inactive); in the assay on NCI-H522, 1.66 µM (inactive); with MDA-MB-435, 2.05 µM (inactive); with Hs-578T, 27.1 µM (inactive); with RPMI-8226, 1.31 µM (inactive). The GI50 was 1.84 µM (inactive) in the assay with PC-3; 1.75 µM (inactive) in the assay on OVCAR-4; 6.93 µM (inactive) in the assay on SF-295; 3.42 µM (inactive) in the assay on SN12C; 2.38 µM (inactive) in the assay on ACHN; 2.73 µM (inactive) in the assay on EKVX.
Take `c1ccc2nc3c(nc2c1)sc1ccccc13`: the GI50 in the assay on T47D is > 100 µM (inactive); in the assay with NCI/ADR-RES, 39.7 µM (inactive); with A498, 27.4 µM (inactive); in the assay on M14, > 100 µM (inactive); in the assay with K562, > 100 µM (inactive); in the assay with MCF7, 26.5 µM (inactive). Besides, the GI50 with SF-539 is 16.4 µM (inactive); in the assay on SK-OV-3 it was 13.2 µM (inactive); in the assay on NCI-H522, 24.2 µM (inactive); in the assay with MDA-MB-435 it was 94.4 µM (inactive); in the assay on Hs-578T it was 30.5 µM (inactive); in the assay with RPMI-8226, > 100 µM (inactive). In addition, the GI50 in the assay on OVCAR-4 was 17.5 µM (inactive); in the assay with SF-295, 30.7 µM (inactive); in the assay on SN12C it was 34 µM (inactive); with ACHN it was 14.3 µM (inactive); with EKVX, 16.1 µM (inactive).
`CSc1nc2c(c(N(C)C)n1)C=Nn1c(nc3ccccc31)S2`: the GI50 with T47D is 64.1 µM (inactive); in the assay with NCI/ADR-RES, > 100 µM (inactive); in the assay on A498 it was > 100 µM (inactive); in the assay with M14 it was > 100 µM (inactive); with OVCAR-8, 74.3 µM (inactive); in the assay with K562, > 100 µM (inactive). The GI50 in the assay with SK-OV-3 was > 100 µM (inactive); in the assay on NCI-H522, 55.5 µM (inactive); in the assay on MDA-MB-435, > 100 µM (inactive); with Hs-578T, 41.4 µM (inactive); in the assay on RPMI-8226, > 100 µM (inactive); with PC-3, > 100 µM (inactive). Moreover, the GI50 is 81.8 µM (inactive) in the assay with OVCAR-4, > 100 µM (inactive) in the assay with SF-295, > 100 µM (inactive) with SN12C and 61.2 µM (inactive) in the assay on ACHN.
For `Cn1c(=O)n2n(c1=O)C1C(=CC2)C2C=CC1n1c(=O)n(C)c(=O)n12` (stereo not given), the GI50 in the assay on T47D, with NCI/ADR-RES, in the assay with A498, in the assay with M14, in the assay with OVCAR-8 and with K562 was > 100 µM (inactive) each time. Further, the GI50 in the assay with SF-539, in the assay with SK-OV-3, in the assay with NCI-H522, with MDA-MB-435, in the assay with Hs-578T and in the assay with RPMI-8226 was > 100 µM (inactive) each time. The GI50 in the assay with PC-3, in the assay with SF-295, with SN12C, in the assay with ACHN and with EKVX was > 100 µM (inactive) each time.
Turning to `COc1cccc(/N=C/c2cc3cc(Br)ccc3nc2Cl)c1`, the GI50 in the assay with T47D was 10.5 µM (inactive); in the assay on NCI/ADR-RES, 17.2 µM (inactive); with M14 it was > 50 µM (inactive); with OVCAR-8, 2.95 µM (inactive); in the assay on K562 it was 8.09 µM (inactive); with SF-539, 13.1 µM (inactive). For the same molecule, the GI50 in the assay with SK-OV-3 is 15.2 µM (inactive); with NCI-H522 it was 8.43 µM (inactive); in the assay with MDA-MB-435 it was 11.1 µM (inactive); in the assay on Hs-578T it was 40.6 µM (inactive); with RPMI-8226, 2.96 µM (inactive); in the assay with PC-3, 8.67 µM (inactive). Also, the GI50 is 0.736 µM (active) in the assay on OVCAR-4, 39.4 µM (inactive) with SF-295, 15.5 µM (inactive) in the assay on SN12C and > 50 µM (inactive) in the assay with EKVX.
With `CC1(C)C/N=C/C(C)(OCc2ccccc2)C(=O)NC(C)(C)C/N=C/C(C)(OCc2ccccc2)C(=O)N1` (stereo not given), the GI50 in the assay on T47D, in the assay with A498, with M14, with OVCAR-8, in the assay with K562 and in the assay on MCF7 was > 10 µM (inactive) in each case. The GI50 with SF-539, in the assay with SK-OV-3, in the assay with MDA-MB-435, with Hs-578T, in the assay with RPMI-8226 and in the assay with PC-3 was > 10 µM (inactive) in each case. The GI50 in the assay with SF-295, in the assay on SN12C, in the assay on ACHN and with EKVX was > 10 µM (inactive) throughout.
